From US20100292209A1, “METHODS FOR IDENTIFYING COMPOUNDS THAT MODULATE NEUROTROPHIC FACTOR SIGNALING” (Massachusetts Institute of Technology, priority 2007, published 2010)
Blank lines part the entries; values can stand above or below the molecule they belong to.

Columns and labels:
PC12-ErbB4-GFP cells [1] = assay: Nrg1-induced neurite outgrowth, live-cell imaging; assay type: cell-based
Protocol: (§1) Average outgrowth per cell was measured after 2 days incubation. C. Cells were pretreated with Iressa or Tarceva at various concentrations for 30 minutes followed by 20 ng/ml Nrg1. Mean outgrowth per cell was measured after 2 days incubation. D. Cells were pretreated with 2 μM Iressa or DMSO for 30 minutes followed by 20 ng/ml Nrg1 or NGF and lysed after 5 minutes. Cell lysates were immunoprecipitated by anti-ErbB4 antibody followed by western blotting with antibodies against phospho-tyrosine and ErbB4. Phosphor-ERK1/2 and total Erk2 levels were determined by direct western blotting with cell lysates.
C. […] Mean outgrowth per cell was measured after 2 days incubation.

ErbB4 [2] = target: T1, ErbB4 (Homo sapiens, UniProt Q15303); assay: Nrg1-induced ErbB4 phosphorylation (immunoprecipitation, western blot); assay type: cell-based; settings: 1 μM Iressa, 20 ng/ml Nrg1, lysed after 5 minutes
T1 construct: expressed in transfected cells
Protocol: as §1, with “Cells were pretreated with 2 μM Iressa or DMSO for 30 minutes followed by 20 ng/ml Nrg1 or NGF and lysed after 5 minutes.” left out
(§2) Cells were lysed with RIPA buffer (Pierce Technology, Rockford, Ill.) containing 1 tablet/10 ml protease inhibitor cocktail Complete Mini (Roche Applied Science). For phosphoprotein analysis, Halt Phosphatase Inhibitor Cocktail (Pierce Technology) was also included. Cell lysate was cleared by centrifuge at 15,000 rpm for 30 min followed by addition of LDS sample buffer (Invitrogen) for direct analysis or immunoprecipitated with specific primary antibodies and Protein A/G agarose (Pierce Technology) following the manufacturer's protocol. […] The membrane was probed with specific primary antibodies according to specified recipes provided by their vendors and then horse radish peroxidase-conjugated secondary antibody to mouse or rabbit IgG (GE Healthcare, Piscataway, N.J.). Target protein bands were detected with SuperSignal West Femto Max Sensitivity Substrate (Pierce Technology).

ERK/MAPK = ERK/MAPK phosphorylation (western blot of cell lysates); assay type: cell-based
Protocol: as §1, with “Cells were pretreated with 2 μM Iressa or DMSO for 30 minutes followed by 20 ng/ml Nrg1 or NGF and lysed after 5 minutes.” left out
as §2

ErbB4 [3] = target: T1, ErbB4; assay: Iressa-conjugated agarose (iTrap) affinity capture of ErbB4 from cell lysate; assay type: binding; settings: 10 uM free Iressa
Protocol: PC12-ErbB4-GFP cells were lysed with modified RIPA buffer at 4° C. for 10 min and the cell lysate was cleared by centrifugation. The cleared lysate (0.40 ml) was tumbled with Iressa (10 μM) or DMSO (1:1000 v/v) as indicated at 4° C. for 30 min before addition of the iTrap resin (10 μA). The resulting mixture was tumbled at 4° C. for 12 hours. The suspension was centrifuged and the supernatant was discarded. The resin was washed with the above modified RIPA buffer (1.0 ml) for four times. The captured proteins were separated by SDS-PAGE. The Western immunoblotting experiment was then performed using anti-ErbB4 antibody.
Agarose beads (iTrap) conjugated with a derivative of Iressa (Iressa—2, FIG. 6A) were used to examine the affinity of Iressa against ErbB4.

PC12-ErbB4-GFP cells [4] = assay: NGF-induced neurite outgrowth, live-cell imaging; assay type: cell-based
ErbB4 [5] = assay: ErbB4 level (western blot, immunofluorescence staining); assay type: cell-based, human; settings: 50 nM, 12 hrs treatment, PC12-ErbB4
Protocol: (§3) A. Cells were treated without or with K252a (50 nM), K252a-Me (50 nM) for 30 min followed by treatment with or without 20 ng/mL Nrg1. Cells were lysed 12 hrs after Nrg1 treatment and analyzed by Western blot with anti-ErbB4 antibody. The bands that correspond to ErbB4 are indicated. B. Cells were treated without or with K252a (50 nM), K252a-Me (50 nM) for 12 hrs then fixed and immunostained with anti-ErbB4 and Alexa594 conjugated secondary antibody. GFP and Alexa594 fluorescent cell images were taken using a 20× objective. C. Cells were treated without or with K252a (50 nM) for 12 hrs followed by treatment of 20 ng/mL Alexa594-Nrg1 for 30 mins and fixed. GFP and Alexa594 fluorescent cell images were taken using a 40× objective.
(§4) This phenomenon, confirmed by immunofluorescence staining for ErbB4 in PC12-ErbB4 (FIG. 7B), might explain why K252a potentiate Nrg1-induced neurite outgrowth. To verify that increased level of ErbB4 does contribute to neuregulin signaling, we examined the Nrg1 uptake with Alexa594-labeled Nrg1 (FIG. 7C). Cells were treated with K252a for 12 hrs followed by Alexa594-labeled Nrg1 for 30 min.

PC12-ErbB4 = assay: Uptake of Alexa594-labeled Nrg1; assay type: cell-based; settings: K252a 50 nM 12 hrs, then Alexa594-labeled Nrg1 30 min, compared to DMSO-treated cells
Protocol: as §3, §4

NGF-TrkA signaling = settings: compared with K252a; cited from earlier work
neurotrophin-3 = settings: cited from earlier work
[6] = tested on: cultured hippocampal neurons; settings: cited from earlier work
PFC pyramidal neuron = PFC pyramidal neuron current assay; cited from earlier work

T1 sequence (Q15303 26-1292 isoform Q15303-3 limits assumed): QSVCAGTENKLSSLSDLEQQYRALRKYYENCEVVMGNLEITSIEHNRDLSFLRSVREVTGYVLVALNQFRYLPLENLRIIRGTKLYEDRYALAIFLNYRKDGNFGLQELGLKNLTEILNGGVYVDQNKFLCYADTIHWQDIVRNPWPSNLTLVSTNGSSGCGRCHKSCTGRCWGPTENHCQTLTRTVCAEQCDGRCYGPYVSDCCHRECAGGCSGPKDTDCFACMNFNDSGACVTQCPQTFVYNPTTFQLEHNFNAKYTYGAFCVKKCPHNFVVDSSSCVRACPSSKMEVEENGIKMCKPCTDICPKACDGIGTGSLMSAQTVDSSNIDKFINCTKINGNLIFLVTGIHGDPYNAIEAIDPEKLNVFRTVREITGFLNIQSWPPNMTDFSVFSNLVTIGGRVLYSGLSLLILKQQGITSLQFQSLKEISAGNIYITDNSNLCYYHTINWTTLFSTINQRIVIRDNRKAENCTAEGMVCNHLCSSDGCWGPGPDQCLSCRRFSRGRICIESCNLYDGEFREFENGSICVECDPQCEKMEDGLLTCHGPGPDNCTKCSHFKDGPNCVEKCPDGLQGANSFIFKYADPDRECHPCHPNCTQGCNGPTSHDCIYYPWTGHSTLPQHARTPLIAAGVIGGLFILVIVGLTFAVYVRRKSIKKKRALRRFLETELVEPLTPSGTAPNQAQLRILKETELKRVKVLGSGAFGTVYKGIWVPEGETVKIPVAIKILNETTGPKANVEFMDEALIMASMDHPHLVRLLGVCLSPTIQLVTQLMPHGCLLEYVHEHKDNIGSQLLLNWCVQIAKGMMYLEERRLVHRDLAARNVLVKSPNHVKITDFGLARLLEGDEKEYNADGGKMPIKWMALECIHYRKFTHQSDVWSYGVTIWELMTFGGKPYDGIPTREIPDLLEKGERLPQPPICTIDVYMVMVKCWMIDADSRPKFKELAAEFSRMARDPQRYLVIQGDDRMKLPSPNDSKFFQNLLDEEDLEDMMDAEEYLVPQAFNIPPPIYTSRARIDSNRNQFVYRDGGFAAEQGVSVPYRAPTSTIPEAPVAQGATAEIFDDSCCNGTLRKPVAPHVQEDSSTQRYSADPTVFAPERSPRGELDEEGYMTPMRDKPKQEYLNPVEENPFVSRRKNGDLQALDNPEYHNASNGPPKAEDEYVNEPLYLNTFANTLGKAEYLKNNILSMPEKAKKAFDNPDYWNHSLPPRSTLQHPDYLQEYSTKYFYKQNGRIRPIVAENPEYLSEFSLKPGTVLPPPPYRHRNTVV

Molecule: COc1cc2ncnc(Nc3cccc(Cl)c3)c2cc1OC [AG1478, 4-(3-Chloroanilino-6,7-dimethoxy)-quinazoline]
effect on Nrg1-induced neurite outgrowth (PC12-ErbB4-GFP cells [1]; 1 μM AG1478, 20 ng/ml Nrg1, 2 days): can specifically inhibit

phosphorylation of ErbB4 receptors induced by Nrg1 (ErbB4 [2]): inhibited
precipitation of ErbB4 by iTrap in competition with free Iressa (ErbB4 [3]): attenuated
Molecule: COc1cc2ncnc(Nc3ccc(F)c(Cl)c3)c2cc1OCCCN1CCOCC1 [Iressa, N-(3-chloro-4-fluoro-phenyl)-7-methoxy-6-(3-morpholin-4-ylpropoxy)quinazolin-4-amine]
subsequent phosphorylation of ERK/MAPK (Nrg1-induced) (ERK/MAPK; 20 ng/ml Nrg1): diminished
NGF-induced MAPK activation (ERK/MAPK; Iressa, 20 ng/ml NGF): did not affect

Molecule: COC(=O)[C@@]1(O)C[C@H]2O[C@]1(C)n1c3ccccc3c3c4c(c5c6ccccc6n2c5c31)C(=O)NC4 [K252a, methyl (5R,6R,8R)-6-hydroxy-5-methyl-13-oxo-5,6,7,8,14,15-hexahydro-13H-5,8-epoxy-4b,8a,14-triazadibenzo[b,h]cycloocta[1,2,3,4-jkl]cyclopenta[e]-as-indacene-6-carboxylate]
potentiation of Nrg1-induced neurite outgrowth (PC12-ErbB4-GFP cells [1]; same concentration range (10 nM)): potentiated
inhibition of NGF-induced neurite outgrowth (PC12-ErbB4-GFP cells [4]; K252a at 10 nM): completely inhibited
level of ErbB4 (ErbB4 [5]): significantly increased
Nrg1 uptake (PC12-ErbB4): significantly higher

Molecule: CC12OC(CC1(O)C(=O)O)n1c3ccccc3c3c4c(c5c6ccccc6n2c5c31)C(=O)NC4 (centres unmarked) [K252b]
potency on inhibiting NGF-TrkA signaling (NGF-TrkA signaling): much lower potency
trophic action of neurotrophin-3 (neurotrophin-3): potentiates

Molecule: O=C1NCc2c1c1c3ccccc3[nH]c1c1[nH]c3ccccc3c21 [K252c]
effect on Nrg1-induced neurite outgrowth in kinase inhibitor screening (PC12-ErbB4-GFP cells [1]; single dose (10 micromolar), 48 hours): potentiates

Molecule: CNc1cc2c(Nc3cccc(Br)c3)ncnc2cn1 [PD158780]
Nrg1 induced neurite outgrowth in cultured hippocampal neurons [6]: decreases
decrement in current caused by Nrg1 (PFC pyramidal neuron): reverses

Molecule: C#Cc1cccc(Nc2ncnc3cc(OCCOC)c(OCCOC)cc23)c1 [Tarceva, N-(3-ethynylphenyl)-6,7-bis(2-methoxyethoxy)quinazolin-4-amine]
IC50 (PC12-ErbB4-GFP cells [1]; read-out: IC50 of inhibition of Nrg1-induced neurite outgrowth): 500 nM
inhibition of NGF-induced neurite outgrowth (PC12-ErbB4-GFP cells [4]; concentration range of 100 nM˜1 (data not shown)): not inhibited

Molecule: NGF: Nerve Growth Factor, neurotrophin
mean neurite length induced by NGF (PC12-ErbB4-GFP cells [4]; 20 ng/ml, in the presence of DMSO, 48 hours): 8.7±1.5 μm
